Results on nine compounds are retold here after patent US20110039921A1 (priority 2007, published 2011).

Series [1] relates to A549: the human lung adenocarcinoma cell strain. Briefly: cells. To be noted: for IC50: read-out: IC50(M) A549. The class given is cell-based. The procedure: (§1) Experiment 1. Cytotoxicity Screening Assay at Cell Level of Compounds of this Invention
(§2) Tumor cells at log phase were incubated on 96-well plates at a density of 1˜1.2×10^4 cells/ml, 100 μl/well. 24 h later, treatment cells were exposed to the tested agents at different concentrations. Each tested agents had 4˜5 doses, and each dose had at least 3 parallel wells. Control cells were exposed to solvents in the same volume with treat agents. Cells were cultured at 37° C. in a cell incubator with 5% CO2 and 95% air atmosphere. After 4 days of culture, the incubation medium was removed, then 200 μl 0.2% MTT (prepared by RPMI 1640) was added to each well and the plates were incubated at 37° C. for 4 hours. The supernatant was discarded and dissolved the resulting formazen product with 200 μl DMSO in each well. The absorbance at a reference wavelength of 450 nm and a test wavelength of 570 nm was read on a microplate reader after tenderly shaking. Calculated drug inhibitory rate using the following equation and IC50, taking solvent exposure tumor cells as control cells.

Series [2] relates to A549/Taxol: the taxol-resistant substrain of A549. Briefly: cells. It counts as cell-based, human. To be noted: for IC50: read-out: IC50(M) A549/Taxol. The procedure:
as §1, §2

Series [3] relates to KB/V: the vincristine-resistant substrain of KB. The experiment in a line: cells. It counts as cell-based, human. To be noted: read-out: IC50(M) KB/V. The procedure: as §1, §2
For series [4], the system named is KB: the human oral epithelium cancer cell strain. Briefly: cells. It counts as cell-based. To be noted: for IC50: read-out: IC50(M) KB. The method, then:
as §1, §2

The next series has as its system HCT-8. The experiment in a line: MTT cytotoxicity assay, HCT-8 cells. It counts as cell-based. The settings on record: Homo sapiens, HCT-8, Table 2, read-out: IC50 (mol/L) HCT-8. The procedure:
as §1, §2
A general note: Formazan colour is commonly taken as a measure of viable cells.

For series [5], the system named is human mammary adenocarcinoma cell strain MCF-7. Briefly: MTT cytotoxicity assay, MCF-7 cells. The class given is cell-based. To be noted: Homo sapiens, MCF7, Table 2, read-out: IC50 (mol/L) MCF-7. The procedure:
as §1, §2

In series [6] the test system is MCF-7/D: adriamycin-resistant subline of the human mammary adenocarcinoma cell strain MCF-7. The experiment in a line: MTT cytotoxicity assay, MCF-7/D cells. The class given is cell-based. The settings on record: Homo sapiens, MCF7, Table 2, read-out: IC50 (mol/L) MCF-7/D. The method, then:
as §1, §2

In another series the test system is BGC-823. The experiment in a line: MTT cytotoxicity assay, BGC-823 cells. It counts as cell-based, human. The settings on record: Homo sapiens, BGC-823, Table 2, read-out: IC50 (mol/L) BGC-823. The method, then: as §1, §2
For another series, the system named is BGC-803. Briefly: MTT cytotoxicity assay, BGC-803 cells. The class given is cell-based. The settings on record: BGC803, Table 2, read-out: IC50 (mol/L) BGC-803. The procedure:
as §1, §2

The subject of series [7] is human ovarian cancer A2780-nude mice-xenograft tumor. Briefly: Growth inhibition on A2780-nude mice-xenograft tumor. An excerpt:
(§3) Genera: BALB/c (nu-nu) nude mice
(§4) After one-week accommodation, animals were given subcutaneous implantation of the human lung adenocarcinoma A549 or the human ovarian cancer A2780 or the human gastric carcinoma BGC-823 cells. Animals were grouped randomly (d0) when the tumors reached 100-300 mm^3. […] Animal weights and tumor measurements were taken every […] and recorded. At the end of the study (d30 or d35), nude mice were euthanized and weighed. After the animals were sacrificed, tumor tissue was cut and weighed. Tumor volume was determined using the following equation: […]

Series [8] deals with human gastric carcinoma BGC-823 nude mice-xenograft tumor. Briefly: Growth inhibition on BGC-823-nude mice-xenograft tumor.
From the text: as §3, §4

The test system of series [9] is human lung adenocarcinoma A549-nude mice-xenograft tumor. The experiment in a line: Growth inhibition on A549-nude mice-xenograft tumor.
From the text: as §3, §4

A further series relates to Lewis lung cancer. Briefly: Inhibitory activity on mice Lewis lung cancer.
Setting [10] is: Table 1, MTT, 4 days of culture.

pIC50: −log10 of the molar value. Where two headings read alike, the source gives them in different places. Where only a bound is given, the exact number is not on record here.

As to `C/C=C(\C)C(=O)N[C@@H](c1ccccc1)[C@@H](O)C(=O)O[C@H]1C[C@@]2(O)[C@@H](OC(=O)c3ccccc3)[C@@H]3[C@]4(OC(C)=O)CO[C@@H]4C[C@H](O)[C@@]3(C)C(=O)[C@H](O)C(=C1C)C2(C)C` [Example 1, 10-deacetyl-cephalomannine], the IC50 in series [1] (setting [10]), in [2] (setting [10]) and in [3] (setting [10]) was > 1e-06 M in each case.

Take `C/C=C(\C)C(=O)N[C@@H](c1ccccc1)[C@@H](O)C(=O)O[C@H]1C[C@@]2(O)[C@@H](OC(=O)c3cccc(N=[N+]=[N-])c3)[C@@H]3[C@]4(OC(C)=O)CO[C@@H]4C[C@H](O)[C@@]3(C)C(=O)[C@H](OC(=O)CC)C(=C1C)C2(C)C` [Example 2, 2-(3-azidobenzoyl)-10-propionyl-cephalomannine]: the IC50 was 8.79e-08 M in series [1] (setting [10]), > 1e-06 M in series [2] (setting [10]) and 1.53e-07 M in [3] (setting [10]).

With `CC=C(C)C(=O)NC(c1ccccc1)C(O)C(=O)OC1CC2(O)C(OC(=O)c3cccc(OC)c3)C3C4(OC(C)=O)COC4CC(O)C3(C)C(=O)C(OC(=O)CC)C(=C1C)C2(C)C` (stereo not drawn) [Example 3, 2-(3-methoxybenzoyl)-10-propionyl-cephalomannine], the IC50 in [1] (setting [10]) is 7.04e-08 M; in series [2] (setting [10]) it was > 1e-06 M; in series [3] (setting [10]), 8.02e-07 M.

In the case of `C/C=C(\C)C(=O)N[C@@H](c1ccccc1)[C@@H](O)C(=O)O[C@H]1C[C@@]2(O)[C@@H](OC(=O)c3ccccc3)[C@@H]3[C@]4(OC(C)=O)CO[C@@H]4C[C@H](O)[C@@]3(C)C(=O)[C@H](OC(=O)CC)C(=C1C)C2(C)C` [Example 4, 10-propionyl-cephalomannine], the IC50 in series [1] (setting [10]) was 2.01e-07 M; in series [4] (setting [10]), 9.74e-09 M; in series [2] (setting [10]) it was 4.21e-07 M; in [3] (setting [10]), 4.85e-07 M.

For the compound `C/C=C(\C)C(=O)N[C@@H](c1ccccc1)[C@@H](O)C(=O)O[C@H]1C[C@@]2(O)[C@@H](OC(=O)c3cccc(N=[N+]=[N-])c3)[C@@H]3[C@]4(OC(C)=O)CO[C@@H]4C[C@H](O)[C@@]3(C)C(=O)[C@H](OC(C)=O)C(=C1C)C2(C)C` [Example 5, 2-(3-azidobenzoyl)-cephalomannine], the IC50 was > 1e-06 M in [1] (setting [10]), 5.9e-10 M in series [4] (setting [10]), > 1e-06 M in series [2] (setting [10]) and 2.23e-07 M in series [3] (setting [10]).

On to `C/C=C(\C)C(=O)N[C@@H](c1ccccc1)[C@@H](O)C(=O)O[C@H]1C[C@@]2(O)[C@@H](OC(=O)c3cccc(OC)c3)[C@@H]3[C@]4(OC(C)=O)CO[C@@H]4C[C@H](O)[C@@]3(C)C(=O)[C@H](OC(C)=O)C(=C1C)C2(C)C` [Example 6, 2-(3-methoxybenzoyl)-cephalomannine], for which the IC50 in series [1] (setting [10]) was 2.1e-07 M; in [4] (setting [10]) it was 1.44e-07 M; in series [2] (setting [10]), > 1e-06 M; in [3] (setting [10]), 8.94e-07 M.

For `CC=C(C)C(=O)NC(c1ccccc1)C(O)C(=O)OC1CC2(O)C(OC(=O)c3cccc(OC)c3)C3C4(OC(C)=O)COC4CC(OC(=O)CC)C3(C)C(=O)C(O)C(=C1C)C2(C)C` (stereo not drawn) [Example 7, 2-(3-methoxybenzoyl)-7-propionyl-10-deacetyl-cephalomannine], the IC50 in [1] (setting [10]) is 2.51e-07 M; in [4] (setting [10]) it was 8.78e-09 M; in [2] (setting [10]), > 1e-06 M; in series [3] (setting [10]), 2.79e-07 M.

For `C/C=C(\C)C(=O)N[C@@H](c1ccccc1)[C@@H](O)C(=O)O[C@H]1C[C@@]2(O)[C@@H](OC(=O)c3ccccc3)[C@@H]3[C@]4(OC(C)=O)CO[C@@H]4C[C@H](O)[C@@]3(C)C(=O)[C@H](OC(C)=O)C(=C1C)C2(C)C` [cephalomannine, reference compound], the IC50 in series [1] (Homo sapiens, A549, 96 h) is 1.33e-07 M; in [4] (Homo sapiens, KB, 96 h), 5.18e-09 M; in series [2] (Homo sapiens, A549/Taxol, 96 h), > 1e-06 M; in series [3] (Homo sapiens, KBV, 96 h) it was 1e-06 M.

As to `CC(=O)O[C@H]1C(=O)[C@@]2(C)[C@H]([C@H](OC(=O)c3ccccc3)[C@]3(O)C[C@H](OC(=O)[C@H](O)[C@@H](NC(=O)c4ccccc4)c4ccccc4)C(C)=C1C3(C)C)[C@]1(OC(C)=O)CO[C@@H]1C[C@@H]2O` [taxol, paclitaxel, reference compound], the IC50 in series [1] (Homo sapiens, A549, 96 h, Table 1, MTT, 4 days of culture) is 2.32e-07 M; in [4] (Homo sapiens, KB, 96 h, Table 1, MTT, 4 days of culture) it was 8.66e-09 M; in series [2] (Homo sapiens, A549/Taxol, 96 h, Table 1, MTT, 4 days of culture), > 1e-06 M; in series [3] (Homo sapiens, KBV, 96 h, Table 1, MTT, 4 days of culture) it was 9.59e-07 M. The pIC50 in series [1] (Homo sapiens, A549, Table 2, MTT assay, read-out: IC50 (mol/L) A549) was 8.28; in series [4] (Homo sapiens, KB, Table 2, MTT assay, read-out: IC50 (mol/L) KB) it was 8.74; in series [2] (Homo sapiens, A549, Table 2, MTT assay, read-out: IC50 (mol/L) A549/T), 7.59; with HCT-8 it was 9.14; in series [5], 9.39; in series [6] it was 6.48. For the same compound, the values for the pIC50 with BGC-823 and with BGC-803 were 8.20 and 8.60, respectively. The values for the RTV in [7] (30 × 4 mg/kg i.p.), in series [8] (30 × 3 mg/kg i.p.) and in series [9] (30 × 3 mg/kg) were 4.4, 0.66 and 4.6, respectively. Moreover, the figures for the “T/C (%)” value in [7] (30 × 4 mg/kg i.p.), in series [8] (30 × 3 mg/kg i.p.) and in [9] (30 × 3 mg/kg) were 45.4%, 2.41% and 38.9%, respectively. Also, the “Tv x ± SD d0” value was found to be 137.9 ± 21.0 in [7] (30 × 4 mg/kg i.p., d0 (first administration)) and 98.8 ± 47.35 in series [8] (30 × 3 mg/kg i.p., d0). The “Tv x ± SD dn” value turned out to be 604.8 ± 525.0 in series [7] (30 × 4 mg/kg i.p., dn: 30 days after the first administration) and 104.9 ± 144.9 in series [8] (30 × 3 mg/kg i.p., dn 30 days after the first administration). The “Body weight (g) end” value was 23.3 g in series [7] (30 × 4 mg/kg i.p., end); 23.9 g in [8] (30 × 3 mg/kg i.p., end); 24.3 g in series [9] (30 × 3 mg/kg, end); 19.4 g with Lewis lung cancer (10 × 6 mg/kg, end). Also, the “Body weight (g) initial” value in series [7] (30 × 4 mg/kg i.p., initial) is given as 22.7 g; in series [8] (30 × 3 mg/kg i.p., initial), 25.2 g; in series [9] (30 × 3 mg/kg, initial), 22.0 g; in the series with Lewis lung cancer (10 × 6 mg/kg, initial), 19.7 g. For the same compound, the “inhibition of tumor growth, conclusion in words” value in series [7] (A2780 nude mice-xenograft tumor, comparison with taxol) is on record as “can inhibit the growth”; in [8] (BGC-823 nude mice-xenograft tumor, comparison with taxol), “can inhibit the growth”; in series [9] (A549 nude mice-xenograft tumor, comparison with taxol), “can inhibit the growth”; in the series on Lewis lung cancer (Lewis lung cancer, comparison with taxol) it was “can inhibit the growth”. Further, in [9] (30 × 3 mg/kg, end), the “Tv x ± SD end” value is on record as 2152 ± 474. Further, the “Inhibition (%)” value with Lewis lung cancer (10 × 6 mg/kg) worked out at 31.64%. Further, in the series on Lewis lung cancer (10 × 6 mg/kg), the “Tumor weight (g) Average” value is listed as 1.96 g.
